Test results: article PMC5088614 (PeerJ, 2016)
Converted amounts (≈) assume the structure as drawn. “And” between values parts separate entries of the source, which are not always exact repeats. Identical values can stand only once. “Also recorded” adds a separate entry of the source. Like-named read-outs stand apart in the source and are kept apart here. Positions of bridges follow the written chain, without caps; N, C: chain ends. Residues, ends and D or L forms follow the SMILES beside them.

Assays:
B. pseudomallei biofilm = conditions: cited from earlier work
[1] = test system: B. pseudomallei strain K96243; type: cell-based, Burkholderia pseudomallei
E.coli ATCC 25922 = type: cell-based, Escherichia coli
[2] = test system: A549, HEPG2 and AGS cells
[3] = test system: B. pseudomallei K96243 biofilm; type: cell-based, Burkholderia pseudomallei; parameters: Mean Diff., Untreated vs treated, Dunnett's Multiple Comparison Test (data for figure 2): unit not given here
[4] = test system: B. pseudomallei strains used in the preliminary study; type: cell-based, Burkholderia pseudomallei
[5] = test system: human gastric adenocarcinoma (AGS) cells; conditions: cited from earlier work
[6] = test system: Escherichia coli (ATCC 29522)
[7] = test system: human lung epithelial (A549) cells; conditions: cited from earlier work
[8] = test system: human hepatocellular carcinoma (HepG2) cells; conditions: cited from earlier work
[9] = test system: human hepatocellular carcinoma (HepG2) cells
E. coli = type: cell-based, Escherichia coli
[10] = test system: human lung epithelial (A549) cells
B. pseudomallei isolates = type: cell-based, Burkholderia pseudomallei
[11] = test system: B. pseudomallei strain K96243 and clinical strains UMC031, UMC080, UMC089; conditions: for MIC, B. pseudomallei (average): 24 h
[12] = test system: human gastric adenocarcinoma (AGS) cells
B. pseudomallei K96243 = type: cell-based, Burkholderia pseudomallei

## CC(C)(O/N=C(\C(=O)N[C@@H]1C(=O)N2C(C(=O)[O-])=C(C[n+]3ccccc3)CS[C@H]12)c1csc(N)n1)C(=O)O [CAZ, ceftazidime]
B. pseudomallei biofilm
  concentration with anti-B. pseudomallei biofilm / biofilm inhibition activity: 936 µM
[1]
  time after exposure to growth inhibition / bactericidal endpoint: 8 h
E.coli ATCC 25922
  Antibiotic susceptibility by disk diffusion: S
[2]
  Mean Diff., 0 vs comparator, Dunnett's Multiple Comparison Test (MTT): 13.7
[3]
  Mean Diff., Untreated vs treated, Dunnett's Multiple Comparison Test (data for figure 2): 7.842
  reduction of surviving bacteria in biofilm state compared to the untreated (significance): significant reduction
[3]; 24 h
  inhibition of bacteria in biofilm state compared to untreated: complete inhibition
[4]
  Antibiotic susceptibility by disk diffusion: R and S

## O=C(O)c1cn(C2CC2)c2cc(N3CCNCC3)c(F)cc2c1=O [CIP]
E.coli ATCC 25922
  Antibiotic susceptibility by disk diffusion: S

## O=C(N[C@H](CO)[C@H](O)c1ccc([N+](=O)[O-])cc1)C(Cl)Cl [C]
E.coli ATCC 25922
  Antibiotic susceptibility by disk diffusion: S
[4]
  Antibiotic susceptibility by disk diffusion: S and R

## C[C@H]1c2cccc(O)c2C(O)=C2C(=O)[C@]3(O)C(O)=C(C(N)=O)C(=O)[C@@H](N(C)C)[C@@H]3[C@@H](O)[C@@H]21 [DXT]
E.coli ATCC 25922
  Antibiotic susceptibility by disk diffusion: S
[4]
  Antibiotic susceptibility by disk diffusion: S

## C[C@@H](O)[C@H]1C(=O)N2C(C(=O)O)=C(SCCN=CN)C[C@H]12 [IMI]
E.coli ATCC 25922
  Antibiotic susceptibility by disk diffusion: S
[4]
  Antibiotic susceptibility by disk diffusion: S

## CC[C@H](C)[C@H](NC(=O)[C@H](CCCCN)NC(=O)[C@H](CCC(=O)O)NC(=O)[C@H](CCCCN)NC(=O)[C@H](CO)NC(=O)[C@H](CCCCN)NC(=O)[C@H](CCCNC(=N)N)NC(=O)[C@H](Cc1ccccc1)NC(=O)[C@H](Cc1ccccc1)NC(=O)[C@H](CC(=O)O)NC(=O)CNC(=O)[C@H](CC(C)C)NC(=O)[C@@H](N)CC(C)C)C(=O)NCC(=O)N[C@@H](CCCCN)C(=O)N[C@@H](CCC(=O)O)C(=O)N[C@@H](Cc1ccccc1)C(=O)N[C@@H](CCCCN)C(=O)N[C@@H](CCCNC(=N)N)C(=O)N[C@H](C(=O)N[C@H](C(=O)N[C@@H](CCC(N)=O)C(=O)N[C@@H](CCCNC(=N)N)C(=O)N[C@H](C(=O)N[C@@H](CCCCN)C(=O)N[C@@H](CC(=O)O)C(=O)N[C@@H](Cc1ccccc1)C(=O)N[C@@H](CC(C)C)C(=O)N[C@@H](CCCNC(=N)N)C(=O)N[C@@H](CC(N)=O)C(=O)N[C@@H](CC(C)C)C(=O)N[C@H](C(=O)N1CCC[C@H]1C(=O)N[C@@H](CCCNC(=N)N)C(=O)N[C@H](C(=O)N[C@@H](CCC(=O)O)C(=O)N[C@@H](CO)C(=O)O)[C@@H](C)O)C(C)C)[C@@H](C)CC)C(C)C)[C@@H](C)CC [LL-37]
[5]
  cytotoxicity to AGS: cytotoxic
[6]; ATCC 29522, 24 h
  MBC, E.coli (ATCC 29522): 14.8 ± 6.42 µM (≈ 66.5 µg/mL)
  MIC, E.coli (ATCC 29522): 14.8 ± 6.42 µM (≈ 66.5 µg/mL)
[7]
  cytotoxicity to A549: cytotoxic

## C[C@@H](O)[C@H]1C(=O)N2C(C(=O)O)=C(S[C@@H]3CN[C@H](C(=O)N(C)C)C3)[C@H](C)[C@H]12 [MRP, meropenem]
E.coli ATCC 25922
  Antibiotic susceptibility by disk diffusion: S
[2]
  Mean Diff., 0 vs comparator, Dunnett's Multiple Comparison Test (MTT): 11.53
[3]
  Mean Diff., Untreated vs treated, Dunnett's Multiple Comparison Test (data for figure 2): 7.842
  reduction of surviving bacteria in biofilm state compared to the untreated (significance): significant reduction
[3]; 24 h
  inhibition of bacteria in biofilm state compared to untreated: complete inhibition
[4]
  Antibiotic susceptibility by disk diffusion: S

## CC(C)C[C@H](NC(=O)[C@H](CCCNC(=N)N)NC(=O)CNC(=O)CNC(=O)[C@@H](N)CCCNC(=N)N)C(=O)N[C@H]1CSSC[C@@H](C(=O)N[C@H](C(=O)NCC(=O)N[C@@H](CCCNC(=N)N)C(N)=O)C(C)C)NC(=O)[C@H](C(C)C)NC(=O)[C@@H]2CSSC[C@H](NC(=O)[C@H](Cc3ccc(O)cc3)NC1=O)C(=O)N[C@@H](CCCNC(=N)N)C(=O)N[C@@H](CCCNC(=N)N)C(=O)N[C@@H](CCCNC(=N)N)C(=O)N[C@@H](Cc1ccccc1)C(=O)N2 [PG1, Protegrin 1]
[8]
  cytotoxicity against Hep G2: cytotoxic
[9]; 2 h, 115 μM
  percentage of viable cells, HEPG2: 5.0%
E. coli
  Susceptibility of strain to AMP (S/R), preliminary study: S
[10]; 2 h, 115 μM
  percentage of viable cells, A549: 3.3%
[6]; 37 °C 24 h
  MIC, E.coli (ATCC 29522): 5.8 ± 1.09E-15 μM
[2]
  Mean Diff., 0 vs comparator, Dunnett's Multiple Comparison Test (MTT): 96.14
B. pseudomallei isolates
  B. pseudomallei isolates susceptible to the AMP: 100%
[3]
  Mean Diff., Untreated vs treated, Dunnett's Multiple Comparison Test (data for figure 2): 6.743
  reduction of surviving bacteria in biofilm state compared to the untreated (significance): significant reduction
  surviving bacteria in biofilm state 24 h post exposure: 1.1 log CFU/biofilm
[11]
  MIC, B. pseudomallei (average): 15.46 ± 5.02 µM (≈ 33.3 µg/mL)
[12]; 2 h, 115 μM
  percentage of viable cells, AGS: 3.0%

## CN(C)c1cc(NC(=O)CNC(C)(C)C)c(O)c2c1C[C@H]1C[C@H]3[C@H](N(C)C)C(O)=C(C(N)=O)C(=O)[C@@]3(O)C(O)=C1C2=O [TGC]
[4]
  Antibiotic susceptibility by disk diffusion: R and S

## CC[C@H](C)[C@@H]1NC(=O)CNC(=O)[C@H](CCCNC(=N)N)NC(=O)[C@H](Cc2ccc(O)cc2)NC(=O)[C@@H]2CSSC[C@H](NC1=O)C(=O)N[C@@H](Cc1ccc(O)cc1)C(=O)N[C@@H](CCCNC(=N)N)C(=O)N[C@@H](CCCNC(=N)N)C(=O)N[C@H](C(=O)N[C@@H](CCCNC(=N)N)C(N)=O)CSSC[C@H](NC(=O)[C@H](Cc1c[nH]c3ccccc13)NC(=O)[C@@H](N)CCCCN)C(=O)N[C@@H](Cc1ccccc1)C(=O)N[C@@H](CCCNC(=N)N)C(=O)N[C@@H](C(C)C)C(=O)N2 [TP1, Tachyplesin 1] (H-KWCFRVCYRGICYRRCR-NH2; disulfide 3-16, 7-12)
[9]
  MTT, mean over the lower concentrations: 91.041
B. pseudomallei K96243
  cell morphology by SEM: membrane blebbing; also recorded: corrugated with dimples on the surface
E. coli
  Susceptibility of strain to AMP (S/R), preliminary study: S
[10]
  MTT, mean over the lower concentrations: 86.0736
[1]
  concentration inhibiting B. pseudomallei K96243 growth: > 55 µM
  time after exposure to growth inhibition: following eight hours of exposure
  viable bacteria at 24 h: 9.96 log CFU/ml
[6]; ATCC 29522, 24 h
  MBC, E.coli (ATCC 29522): 22.1 ± 0 µM (≈ 50 µg/mL)
  MIC, E.coli (ATCC 29522): 22.1 ± 0 µM (≈ 50 µg/mL)
B. pseudomallei isolates
  B. pseudomallei isolates susceptible to the AMP: 83%
  Susceptibility of strain to AMP (S/R), preliminary study: S and R
[3]
  MBEC: not achieved
  Mean Diff., 0 vs concentration (Bonferroni's test): 4.116 and 4.208
  Mean Diff., Untreated vs treated, Dunnett's Multiple Comparison Test (data for figure 2): 3.641
  concentration of maximum inhibition of cells in biofilm state: 442 µM
  concentration reducing the number of B. pseudomallei in biofilm state: above 55 μM
  inhibition activity of TP1 higher than LL-37: approximately 2.0 log
  inhibition activity of TP1 lower than PG1: 3.5 log
  log reduction of bacteria in biofilm state: 1.0 log and 1.3 log
  reduction of surviving bacteria in biofilm state compared to the untreated (significance): significant reduction
  surviving bacteria in biofilm state: ~4.00 log CFU/biofilm
  surviving bacteria in biofilm state 24 h post exposure: 4.2 log CFU/biofilm
[3]; 24 h
  surviving bacteria in biofilm state at the end of the TP1 concentration series: 3.6 log CFU/biofilm
[11]; 37 °C 24 h
  MBC, B. pseudomallei (average): 193.35 ± 2.00E-14 μM
[11]
  MIC, B. pseudomallei (average): 61.69 ± 6.38 µM (≈ 140 µg/mL)
[12]
  MTT, mean over the lower concentrations: 87.0414
[12]; 2 h, 2.7 μM
  percentage of viable cells, AGS: 85.1%
[12]; 2 h, 48.6 μM
  percentage of viable cells, AGS: 80%
[12]; 24 h, 22.3 μM
  percentage of viable cells, AGS: 90.0 ± 8.4%

## GFKLKGMARISCLPNGQWSNFPPKCIRECA [Sushi 1]
E. coli
  Susceptibility of strain to AMP (S/R), preliminary study: S
B. pseudomallei isolates
  Susceptibility of strain to AMP (S/R), preliminary study: R
[3]
  Mean Diff., Untreated vs treated, Dunnett's Multiple Comparison Test (data for figure 2): 0.04572

## GIGKFLHSAKKFGKAFVGEIMNS [Magainin 2]
E. coli
  Susceptibility of strain to AMP (S/R), preliminary study: S
B. pseudomallei isolates
  Susceptibility of strain to AMP (S/R), preliminary study: R
[3]
  Mean Diff., Untreated vs treated, Dunnett's Multiple Comparison Test (data for figure 2): 0.2494

## HAEHKVKIGVEQKYGQFPQGTEVTYTCSGNYFLM [Sushi 3]
E. coli
  Susceptibility of strain to AMP (S/R), preliminary study: S
B. pseudomallei isolates
  Susceptibility of strain to AMP (S/R), preliminary study: R
[3]
  Mean Diff., Untreated vs treated, Dunnett's Multiple Comparison Test (data for figure 2): 0.04165

## Ornithine
E. coli
  Susceptibility of strain to AMP (S/R), preliminary study: S
B. pseudomallei isolates
  Susceptibility of strain to AMP (S/R), preliminary study: R
